The source made the active and inactive calls. The rule behind the calls is not given here. Starred links: 1 amine or outer side, 2 acyl side, 3 side chain; linkers in the order of their positions; H or OH if unused. Positions of bridges follow the written chain, without caps; N, C: chain ends. Non-standard residues stand in square brackets, D forms with d. Chains are numbered I, II in the order given. εLys = N[C@@H](CCCCN[*:1])C(=O)[*:2]; Nle = CCCC[C@H](N)C(=O)O
What was measured:
HeLa [1] = assay: Induction of membrane-remodelling in human HeLa cells assessed as increase in cell internalization of FITC-R8 peptide at 0.5 uM incubated for 30 mins by PI staining based assay relative to control; type: cell membranes
HeLa [2] = assay: Induction of membrane-remodelling in human HeLa cells assessed as increase in cell internalization of FITC-R8 peptide at 1 uM incubated for 30 mins by PI staining based assay; type: cell membranes
HeLa [3] = assay: Cytotoxicity against human HeLa cells assessed as proportion of cells with ruptured cell membrane at 1 uM incubated for 30 mins in presence of 10 uM FITC-R8 peptide by propidium iodide staining based assay; conditions: 0.5 h
Lipid bilayer [4] = assay: Binding affinity to POPC/POPS (3:1) LUVs assessed as stabilization of drug peptide's alpha helical signature with CD minima at around 208 and 222 nm and a positive ellipticity below 200 nm at 6.7 uM by CD spectroscopy
HeLa [5] = assay: Induction of membrane-remodelling in human HeLa cells assessed as loosening of the lipid package by measuring decrease in generalized polarization of cell membrane at 0.5 uM incubated for 10 mins by di-4-ANEPPDHQ polarity-sensitive fluorescent membrane probe based confocal microscopic method; type: cell membranes
[6] = Cytotoxicity against human HeLa cells assessed as cell viability at <=1 uM by WST8 assay; type: cell-based; conditions: read-out: Activity
HeLa [7] = assay: Induction of membrane-remodelling in human HeLa cells assessed as increase in cell internalization of FITC-R8 peptide at 0.25 uM incubated for 30 mins by PI staining based assay; type: cell membranes
Lipid bilayer [8] = assay: Induction of membrane-remodelling in DOPE bilayer assessed as phase transition temperature required for conversion of lamellar L-alpha phase to inverted hexagonal HII phase at peptide to lipid molar ratio of 1:100 by solid-state 31P NMR analysis (reference value: 25 degC)

Activity (HeLa [1]): 60%
Activity (HeLa [2]): inactive
Activity (Lipid bilayer [4]): Active
Activity (HeLa [5]): Active
Activity (HeLa [7]): Active
T (Lipid bilayer [8]): 46 °C
Substance: I: H-[Nle]SSLRRQ[Nle]KNIVHNYS[εLys]GKGKG-OH / II: H-[Nle]SSLRRQ[Nle]KNIVHNYS / III: H-[Nle]SSLRRQ[Nle]KNIVHNYS (amide I:19-III:C, I:21-II:C)
Activity (HeLa [3]): > 10%
viability [6]: > 90%

Source: ChEMBL document CHEMBL4619748, “Enhancing the activity of membrane remodeling epsin-peptide by trimerization” (Bioorg Med Chem Lett, 2020)
